What was measured:
[1] = test system: lysosomes and MVBs/exosomes; assay: Transmission electron microscopy (TEM) of treated cells; assay type: cell-based, human
HeLaPKRkd cells [2] = assay: Microscopic analysis of morphologic changes; assay type: cell-based, human
Text: (§1) Anticancer effects of PKR-targeting compounds depend on PKR expression status: To identify compounds that can target lysosomes in PKR-positive cells or MVBs/exosomes in PKR-negative cells, the 10,000-compound ChemBridge library was screened for compounds with different effects on the growth of HeLa and HeLaPKRkd cells. […] SRB assays were next used to determine cell viability after treatment with Pac 1 or Pac 2.
Identification of PKR-associated compounds and cytotoxicity studies: The library of 10,000 compounds was screened for those with different effects on the growth of HeLa and HeLaPKRkd cells. For this screening, both HeLa and HeLaPKRkd cells were seeded in 96-well plates in parallel and treated with each compound at a final concentration of 5 μg/mL. Cells treated with dimethyl sulfoxide (final concentration, 1%) were used as controls. Treated cells were observed under a microscope to detect morphologic changes, and their viability was determined using SRB assays 2 and 3 days after treatment. The compounds initially observed to have different effects on HeLa and HeLaPKRkd cells were subjected to two confirmatory screenings.

AP-1/2/3 complexes = assay: Western blot of AP-1, AP-2 and AP-3 complex-associated proteins; assay type: cell-based, human; conditions: H1299 and MDA-MB-231 cells, 72 hours after treatment
Text: Western blotting was next used to evaluate proteins known to be involved in AP-1/2/3 complexes in lung (H1299) and breast (MDA-MB-231) cancer cells after treatment with Pac 1 or Pac 2. […] AP-1 and AP-2 mediate protein sorting in the endosome, trans-Golgi network, and plasma membrane. […] The impact of Pac 1 was then investigated on lysosome function by staining cells with the acidophilic dye LysoTracker Red.

Toxicity in mice = conditions: 50 mg/kg intravenously daily for 7 days
[3] = test system: normal cells (HBE, human mammary epithelial cells); assay: SRB cell viability assay, normal cells; assay type: cell-based; conditions: 72 hours after treatment, HBE and human mammary epithelial cells
Method: The effects of Pac 1 and Pac 2 were next examined on PKR protein expression in HeLa cells using Western blot analysis. […] No reduction in normal cell viability was observed after treatment with Pac 1 or Pac 2 (FIGS. 5F and G). […] Because most of the cancer cell lines that were tested were more sensitive to Pac 1 than to Pac 2, Pac 1 was further investigated.
(§2) Cell viability assays: For SRB assays, cells (2-8×10^3/well in 100 μL of culture medium) were seeded in 96-well flat-bottomed plates and treated the next day with compounds at the indicated concentrations. After the indicated treatments, cells were fixed with trichloroacetic acid. The protein was stained with SRB, and the optical density at 570 nm was determined. Relative cell viability was calculated by setting the viability rate of the control cells (exposed only to dimethyl sulfoxide) at 100% and comparing the viability of the treated cells with that of the controls. The experiments were performed at least three times for each cell line. The viability of leukemia cell lines was determined by using a 3-(4,5-dimethylthiazol-2-yl)-2,5-diphenyltetrazolium bromide assay.
(§3) For the SRB assay, cells (2-8×10^3/well in 100 μL of culture medium) were seeded in 96-well flat-bottomed plates and treated the next day with compounds at the indicated concentrations. […] The cells were stained using SRB, and the optical density at 570 nm was determined. […]

HeLa cells = assay: SRB cell viability assay; assay type: cell-based, human; conditions: 72 hours after treatment
Method: as §1, §2
(§4) Identification of PKR-associated compounds and cytotoxicity studies: The library of 10,000 compounds was screened for those with different effects on the growth of HeLa and HeLaPKRkd cells. […] Treated cells were observed under a microscope to detect morphologic changes, and their viability was determined using SRB assays 2 and 3 days after treatment. […]
as §3, with “determined. Relative cell viability was determined by setting the viability of the control cells (exposed only to dimethyl sulfoxide) at 100% and comparing their viability with that of the treated cells.” for “determined.”

HeLaPKRkd cells [4] = assay: SRB cell viability assay; assay type: cell-based, human; conditions: 72 hours after treatment
Method: as §1, §2, §4
as §3, with “determined. Relative cell viability was determined by setting the viability of the control cells (exposed only to dimethyl sulfoxide) at 100% and comparing their viability with that of the treated cells.” for “determined.”

prion degradation = assay type: cell-based, human; conditions: HeLa cells, Ad-Prion 48 hours, 1 mM

| SMILES | lysosomal exocytosis by TEM ([1]; HeLa cells) | lysosomes and MVBs/exosomes by TEM ([1]; HeLaPKRkd cells) | growth of HeLaPKRkd cells by microscopy (HeLaPKRkd cells [2]) | expression of proteins associated with AP-1 (Rab7α, HSC70, AP-1γ) or AP-2 (AP-2α) (AP-1/2/3 complexes) | blood chemistry: aspartate aminotransferase, SGOT, SGPT, alkaline phosphatase, creatine kinase, lactate dehydrogenase levels (Toxicity in mice) | histopathologic examination of major organs (Toxicity in mice; heart, lungs, liver, kidneys, pancreas, spleen) | normal cell viability [3] | viability of HeLa cells (HeLa cells) | viability of HeLaPKRkd cells (HeLaPKRkd cells [4]) | prion degradation (prion degradation) |
| --- | --- | --- | --- | --- | --- | --- | --- | --- | --- | --- |
| Fc1ccc(Nc2nc(N/N=C/c3ccc4c(c3)OCO4)nc(N3CCOCC3)n2)cc1 [Pac 2, 1,3-benzodioxole-5-carbaldehyde [4-[(4-fluorophenyl)amino]-6-(4-morpholinyl)-1,3,5-triazin-2-yl]hydrazine] | induced lysosomal exocytosis | destroyed MVBs/exosomes | suppressed the growth of HeLaPKRkd cells more effectively than did Pac 1 | No reduction of expression | normal | no significant changes in any major organs | No reduction | not sensitive | suppressed more effectively by Pac 2 | – |
| Cn1cnc(N)c2ncnc1-2 [Pac 3MA, 3-methyladenine] | – | – | – | – | – | – | – | – | – | prevented prion degradation |

— patent publication US12465610B2, “Compounds and methods for the treatment of PKR-associated diseases” (Board of Regents, The University of Texas System, priority 2019, dated 2025)
